The record followed here is patent US20250228239A1, “MOLECULES HAVING PESTICIDAL UTILITY, AND INTERMEDIATES, COMPOSITIONS, AND PROCESSES, RELATED THERETO” (priority 2024, published 2025).

Molecules are shown by their SMILES. Read-outs that look alike come from different tables or passages of the source.

The subject of experiment [1] is Beet Armyworm (Spodoptera exigua, LAPHEG). The experiment is described as follows: Bioassays on Beet Armyworm (BAW), 128-well diet tray assay. In kind it is in vivo. As to conditions: Spodoptera exigua. In outline:
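Percent larval mortality, averaged across eight wells, scored after five to seven days at 25° C. under 14:10 light-dark. Each well held one to five second instars feeding on diet dosed at 50 μg/cm^2 with compound from 90:10 acetone-water, solvent dried off.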

In experiment [2] the test system is Cabbage Looper (Trichoplusia ni, TRIPNI). Description: Bioassays on Cabbage Looper (CL), 128-well diet tray assay. In kind it is in vivo. Particulars: Trichoplusia ni. An outline of the steps: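 Each of eight wells receives artificial diet treated at 50 μg/cm^2 with the test molecule, then one to five second-instar larvae. Incubation runs five to seven days at 25° C with a 14:10 light-dark cycle under vented covers. Mortality is scored per well as a percentage and averaged.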

The mark [3] stands for this setting: Beet Armyworm, rating class, read-out: BAW.
Setting [4] is: Cabbage Looper, rating class, read-out: CL.
Setting [5] is: Beet Armyworm, Table ABC / ABC-DP rating, read-out: BAW rating.
Setting [6] is: Cabbage Looper, Table ABC / ABC-DP rating, read-out: CL rating.
Where [7] appears, read: Table ABC: Biological Results, species BAW, read-out: BAW.
The mark [8] stands for this setting: Table ABC: Biological Results, species CL, read-out: CL.

Take `O=C(Nc1ccc(F)c(NC(=O)C2CCCOC2)c1F)c1cc(NC(=O)[C@H]2[C@H](c3ccc(F)c(C(F)(F)F)c3)C2(Cl)Cl)ccc1Cl` (stereo partly drawn) [F1722, N-(3-(2-Chloro-5-((1R,3R)-2,2-dichloro-3-(4-fluoro-3-(trifluoromethyl)phenyl)cyclopropane-1-carboxamido)benzamido)-2,6-difluorophenyl)tetrahydro-2H-pyran-3-carboxamide]: the pest or weed control at 50 µg/cm2 in experiment [1] (setting [3]) and in experiment [2] (setting [4]) was 50 to 100% in each case.
Consider `O=C(Nc1ccc(F)cc1F)c1cc(NC(=O)[C@H]2[C@H](c3ccc(F)c(F)c3)C2(Cl)Cl)ccc1Cl` [F1750, 2-Chloro-5-((1R,3R)-2,2-dichloro-3-(3,4-difluorophenyl)cyclopropane-1-carboxamido)-N-(2,4-difluorophenyl)benzamide], for which the pest or weed control at 50 µg/cm2 in experiment [1] (setting [3]) and in experiment [2] (setting [4]) was 50 to 100% in each case.
Regarding `CCOC(CC)C(=O)Nc1c(F)ccc(NC(=O)c2cc(NC(=O)[C@H]3[C@H](c4ccc(F)c(C(F)(F)F)c4)C3(Cl)Cl)ccc2Cl)c1F` (stereo partly drawn) [F1757, 2-Chloro-5-((1R,3R)-2,2-dichloro-3-(4-fluoro-3-(trifluoromethyl)phenyl)cyclopropane-1-carboxamido)-N-(3-(2-ethoxybutanamido)-2,4-difluorophenyl)benzamide], the pest or weed control at 50 µg/cm2 in experiment [1] (setting [3]) and in experiment [2] (setting [4]) was 50 to 100% in each case.
Regarding `O=C(NNC(=O)C(C(F)(F)F)C(F)(F)F)c1cc(NC(=O)[C@H]2[C@H](c3cc(Cl)cc(Cl)c3)C2(Cl)Cl)ccc1Cl` (relative stereo) [F2532, trans-2,2-Dichloro-N-(4-chloro-3-(2-(3,3,3-trifluoro-2-(trifluoromethyl)propanoyl)hydrazine-1-carbonyl)phenyl)-3-(3,5-dichlorophenyl)cyclopropane-1-carboxamide], the pest or weed control at 50 µg/cm2 in experiment [1] (setting [5]) and in experiment [2] (setting [6]) was 50 to 100% in each case.
On to `O=C(CCC(F)(F)C(F)(F)F)Nc1c(F)ccc(NC(=O)c2cc(NC(=O)[C@H]3[C@H](c4ccc(F)c(Cl)c4)C3(Cl)Cl)ccc2Cl)c1F` [F1865, 2-Chloro-5-((1R,3R)-2,2-dichloro-3-(3-chloro-4-fluorophenyl)cyclopropane-1-carboxamido)-N-(2,4-difluoro-3-(4,4,5,5,5-pentafluoropentanamido)phenyl) benzamide], for which the pest or weed control at 50 µg/cm2 in experiment [1] (setting [5]) and in experiment [2] (setting [6]) was 50 to 100% throughout.
As to `COc1c(Cl)cc(NC(=O)[C@H]2[C@H](c3ccc(F)c(Cl)c3)C2(Cl)Cl)cc1C(=O)Nc1ccc(F)cc1` (relative stereo) [F1235, trans-3-Chloro-5-(2,2-dichloro-3-(3-chloro-4-fluorophenyl)cyclopropane-1-carboxamido)-N-(4-fluorophenyl)-2-methoxybenzamide], the pest or weed control at 50 µg/cm2 in experiment [1] (setting [7]) and in experiment [2] (setting [8]) was 50 to 100% throughout.
As to `CC(=O)Nc1c(F)ccc(NC(=O)c2cc(NC(=O)[C@H]3[C@H](c4ccc(F)c(C(F)(F)F)c4)C3(Cl)Cl)cc(C)c2Cl)c1F` [F1545, N-(3-acetamido-2,4-difluorophenyl)-2-chloro-5-((1R,3R)-2,2-dichloro-3-(4-fluoro-3-(trifluoromethyl)phenyl)cyclopropane-1-carboxamido)-3-methylbenzamide], the pest or weed control at 50 µg/cm2 in experiment [1] (setting [3]) and in experiment [2] (setting [4]) was 50 to 100% in each case.
Consider `CC(=O)Nc1cc(NC(=O)c2cc(NC(=O)[C@H]3[C@H](c4ccc(F)c(C(F)(F)F)c4)C3(Cl)Cl)cc(C)c2Cl)c(F)cc1F` [F1548, N-(5-Acetamido-2,4-difluorophenyl)-2-chloro-5-((1R,3R)-2,2-dichloro-3-(4-fluoro-3-(trifluoromethyl)phenyl)cyclopropane-1-carboxamido)-3-methylbenzamide], for which the pest or weed control at 50 µg/cm2 in experiment [1] (setting [3]) and in experiment [2] (setting [4]) was 50 to 100% throughout.
For `O=C(Nc1ccc(F)cc1F)c1cc(NC(=O)[C@H]2[C@H](c3ccc(F)c(Cl)c3)C2(Cl)Cl)cc(Cl)c1F` (relative stereo) [F1196, trans-3-Chloro-5-(2,2-dichloro-3-(3-chloro-4-fluorophenyl)cyclopropane-1-carboxamido)-N-(2,4-difluorophenyl)-2-fluorobenzamide], the pest or weed control at 50 µg/cm2 in experiment [1] (setting [7]) and in experiment [2] (setting [8]) was 50 to 100% each time.
`CCNC(=O)c1cc(NC(=O)[C@H]2[C@H](c3ccc(F)c(Cl)c3)C2(Cl)Cl)cc(F)c1F` (relative stereo) [F2051, trans-5-(2,2-Dichloro-3-(3-chloro-4-fluorophenyl)cyclopropane-1-carboxamido)-N-ethyl-2,3-difluorobenzamide]: the pest or weed control at 50 µg/cm2 in experiment [1] (setting [5]) and in experiment [2] (setting [6]) was 50 to 100% throughout.
Turning to `COc1c(Cl)cc(NC(=O)[C@H]2[C@H](c3ccc(F)c(Cl)c3)C2(Cl)Cl)cc1C(=O)NCC(F)(F)F` (relative stereo) [F2061, trans-3-Chloro-5-(2,2-dichloro-3-(3-chloro-4-fluorophenyl)cyclopropane-1-carboxamido)-2-methoxy-N-(2,2,2-trifluoroethyl)benzamide], the pest or weed control at 50 µg/cm2 in experiment [1] (setting [5]) and in experiment [2] (setting [6]) was 50 to 100% throughout.
With `O=C(Nc1ccc(F)cc1F)c1c(F)ccc(NC(=O)[C@H]2[C@H](c3ccc(F)c(Cl)c3)C2(Cl)Cl)c1F` (relative stereo) [F1086, trans-3-(2,2-Dichloro-3-(3-chloro-4-fluorophenyl)cyclopropane-1-carboxamido)-N-(2,4-difluorophenyl)-2,6-difluorobenzamide], the pest or weed control at 50 µg/cm2 in experiment [1] (setting [7]) and in experiment [2] (setting [8]) was 50 to 100% in each case.
With `O=C(NCC(F)(F)F)c1cc(NC(=O)[C@H]2[C@H](c3ccc(F)c(C(F)(F)F)c3)C2(Cl)Cl)c(F)cc1Cl` [F2084, 2-Chloro-5-((1R,3R)-2,2-dichloro-3-(4-fluoro-3-(trifluoromethyl)phenyl)cyclopropane-1-carboxamido)-4-fluoro-N-(2,2,2-trifluoroethyl)benzamide], the pest or weed control at 50 µg/cm2 in experiment [1] (setting [5]) and in experiment [2] (setting [6]) was 50 to 100% throughout.
As to `O=C(Nc1ccc(F)cc1F)c1cc(NC(=O)[C@H]2[C@H](c3cc(Cl)cc(Cl)c3)C2(Cl)Cl)ccc1F` (single isomer, unassigned) [F1375], the pest or weed control at 50 µg/cm2 in experiment [1] (setting [7]) and in experiment [2] (setting [8]) was 50 to 100% throughout.
On to `CC(=O)Nc1c(F)ccc(NC(=O)c2cc(NC(=O)[C@H]3[C@H](c4cc(Cl)c(Cl)c(Cl)c4)C3(Cl)Cl)cc(F)c2F)c1F` [F1433, N-(3-Acetamido-2,4-difluorophenyl)-5-((1R,3R)-2,2-dichloro-3-(3,4,5-trichlorophenyl)cyclopropane-1-carboxamido)-2,3-difluorobenzamide], for which the pest or weed control at 50 µg/cm2 in experiment [1] (setting [3]) and in experiment [2] (setting [4]) was 50 to 100% each time.
With `Nc1cc(NC(=O)c2cc(NC(=O)[C@H]3[C@H](c4cc(Cl)c(Cl)c(Cl)c4)C3(Cl)Cl)cc(F)c2Cl)c(F)cc1F` [F1397, N-(5-Amino-2,4-difluorophenyl)-2-chloro-5-((1R,3R)-2,2-dichloro-3-(3,4,5-trichlorophenyl)cyclopropane-1-carboxamido)-3-fluorobenzamide], the pest or weed control at 50 µg/cm2 in experiment [1] (setting [3]) and in experiment [2] (setting [4]) was 50 to 100% each time.
With `O=C(Nc1c(F)ccc(NC(=O)c2cc(NC(=O)[C@H]3[C@H](c4ccc(Cl)c(Cl)c4)C3(Cl)Cl)ccc2Cl)c1F)c1ccns1` [F1672], the pest or weed control at 50 µg/cm2 in experiment [1] (setting [3]) and in experiment [2] (setting [4]) was 50 to 100% each time.
As to `CC(=O)Nc1c(Cl)ccc(NC(=O)c2cc(NC(=O)[C@H]3[C@H](c4ccc(F)c(C(F)(F)F)c4)C3(Cl)Cl)ccc2Cl)c1Cl` [F1412, N-(3-Acetamido-2,4-dichlorophenyl)-2-chloro-5-((1R,3R)-2,2-dichloro-3-(4-fluoro-3-(trifluoromethyl)phenyl)cyclopropane-1-carboxamido)benzamide], the pest or weed control at 50 µg/cm2 in experiment [1] (setting [3]) and in experiment [2] (setting [4]) was 50 to 100% throughout.
Consider `O=C(Nc1ccccc1)c1cc(NC(=O)[C@H]2[C@H](c3ccc(F)c(Cl)c3)C2(Cl)Cl)cc(Cl)c1F` (relative stereo) [F1194, trans-3-Chloro-5-(2,2-dichloro-3-(3-chloro-4-fluorophenyl)cyclopropane-1-carboxamido)-2-fluoro-N-phenylbenzamide], for which the pest or weed control at 50 µg/cm2 in experiment [1] (setting [7]) and in experiment [2] (setting [8]) was 50 to 100% throughout.
For `CC(=O)Nc1ccc(F)c(NC(=O)c2cc(NC(=O)[C@H]3[C@H](c4ccc(Cl)c(Cl)c4)C3(Cl)Cl)cc(C)c2Cl)c1F` [F1523, N-(3-Acetamido-2,6-difluorophenyl)-2-chloro-5-((1R,3R)-2,2-dichloro-3-(3,4-dichlorophenyl)cyclopropane-1-carboxamido)-3-methylbenzamide], the pest or weed control at 50 µg/cm2 in experiment [1] (setting [3]) and in experiment [2] (setting [4]) was 50 to 100% each time.
`O=C(Nc1c(F)cc(NC(=O)C(Cl)Cl)cc1F)c1cc(NC(=O)[C@H]2[C@H](c3ccc(Cl)c(Cl)c3)C2(Cl)Cl)ccc1Cl` [F1272, 2-Chloro-5-((1R,3R)-2,2-dichloro-3-(3,4-dichlorophenyl)cyclopropane-1-carboxamido)-N-(4-(2,2-dichloroacetamido)-2,6-difluorophenyl)benzamide]: the pest or weed control at 50 µg/cm2 in experiment [1] (setting [7]) and in experiment [2] (setting [8]) was 50 to 100% throughout.
